Where two headings read alike, the source gives them in different places.
Assays:
human TRPV1 [1] = target: T1, human TRPV1 (Homo sapiens, UniProt Q8NER1); test: Capsaicin Activation Assay (FLIPR intracellular Ca2+, recombinant HEK293 cells); format: cell-based
T1 construct: expressed in transfected cells
Description: (i) Capsaicin Activation Assay
Dulbecco's modified Eagle medium (DMEM) (with 4.5 mg/mL glucose) and fetal bovine serum were obtained from Hyclone Laboratories, Inc. (Logan, Utah). Dulbecco's phosphate-buffered saline (DPBS) (with 1 mg/mL glucose and 3.6 mg/l Na pyruvate, without phenol red), L-glutamine, hygromycin B, and Lipofectamine® were obtained from Life Technologies (Grand Island, N.Y.). G418 sulfate was obtained from Calbiochem-Novabiochem Corp. (San Diego, Calif.). Capsaicin (8-methyl-N-vanillyl-6-nonenamide) was obtained from Sigma-Aldrich, Co. (St. Louis, Mo.). Fluo-4 AM (N-[4-[6-[(acetyloxy)-methoxy]-2,7-difluoro-3-oxo-3H-xanthen-9-yl]-2-[2-[2-[bis[2-[(acetyloxy)methoxy]-2-oxyethyl]amino]-5-methylphenoxy]ethoxy]phenyl]-N-[2-[(acetyloxy)methoxy]-2-oxyethyl]-glycine, (acetyloxy)methyl ester) was purchased from Molecular Probes (Eugene, Oreg.).
(§1) Expression plasmids encoding the hTRPV1 cDNA were transfected into HEK293 cells using Lipofectamine®. Forty-eight hours after transfection, the neomycin-resistant cells were selected with growth medium containing 800 μg/mL Geneticin (Life Technologies, formerly Gibco BRL). Surviving individual colonies were isolated and screened for TRPV1 activity. Cells expressing recombinant TRPV1 were maintained at 37° C. in DMEM containing 4 mM L-glutamine, 300 μg/mL G418 (Calbiochem) and 10% fetal bovine serum under a humidified 5% CO2 atmosphere.
The functional activity of compounds at the TRPV1 receptor was determined by measurement of intracellular Ca^2+ levels ([Ca^2+]i) using the Fluorescence Imaging Plate Reader (FLIPR)TETRA®. All compounds were tested over a 12-point one-third-log concentration range. Compound stocks, 10 mM, were prepared in DMSO, and diluted serially across a 384-well plate using a Bravo BenchCel workstation (Agilent Technologies, Santa Clara, Calif.). A stock concentration of capsaicin (10 mM) was made in DMSO, and diluted in DPBS to a final concentration of 200 nM (4×). On the day prior to the experiment, the recombinant HEK293 cells expressing human TRPV1 (hTRPV1) were removed from tissue culture flasks and plated in growth medium into black-walled clear-bottom 384-well Biocoat™ poly-D-lysine assay plates (BD Biosciences, Bedford, Mass.) using a Multidrop® dispenser (ThermoScientific, Waltham, Mass.). […] The plated cells were incubated for 90-120 minutes in the dark at room temperature and then test compound was added to each well. Three minutes later, 200 nM capsaicin (4×) solution was added to each well in an amount sufficient to provide a final assay volume of 80 μL and capsaicin concentration of 50 nM. Fluorescence readings were made at 1 to 5 second intervals over the course of the experimental run. The peak increase in relative fluorescence units (minus baseline) was calculated, and expressed as a percentage of the 50 nM capsaicin (control) response.

human TRPV1 [2] = target: T1, human TRPV1; test: Acid Activation Assay (pH 5.0, FLIPR intracellular Ca2+, recombinant HEK293 cells); format: cell-based; conditions: percentage of maximal pH 5.0-induced response remaining; HEK293 hTRPV1; max concentration 37.5 μM
Description: (ii) Acid Activation Assay
Dulbecco's modified Eagle's medium (DMEM) with 4.5 mg/mL D-glucose, fetal bovine serum, L-glutamine, and 2-morpholinoethanesulfonic acid (MES) were purchased from Sigma-Aldrich Co. (St. Louis, Mo.). […] The FLIPR® Calcium 4 assay kit was purchased from Molecular Devices (Sunnyvale, Calif.).
as §1
The functional activity of compounds at the TRPV1 receptor was determined by measurement of intracellular Ca^2+ levels ([Ca^2+]i) using the Fluorescence Imaging Plate Reader (FLIPR)TETRA®. […] Compound stocks, 10 mM, were prepared in DMSO, and diluted serially across a 384-well plate using a Bravo BenchCel workstation (Agilent Technologies, Santa Clara, Calif.). On the day prior to the experiment, the recombinant HEK293 cells expressing human TRPV1 (hTRPV1) were removed from tissue culture flasks and plated in growth medium into black-walled clear-bottom 384-well Biocoat™ poly-D-lysine assay plates (BD Biosciences, Bedford, Mass.) using a Multidrop® dispenser (ThermoScientific, Waltham, Mass.). […] The plated cells were incubated for 90-120 min in the dark at 25° C. The test compounds dissolved in DMSO were then added to the plates using an Agilent Bravo workstation (Agilent Technologies Inc., Santa Clara, Calif.). Three minutes later, a pH 5.0 solution was added to each well. Reagents were delivered at a rate of 40 μL/sec, and the final assay volume was 80 μL. Acidic pH solutions were prepared by titration of DPBS/MES with 1 N HCl. The intensity of the fluorescence was captured and digitally transferred to an interfaced PC. The maximum peak measured for the concentration range tested was used to calculate the corresponding peak increase in fluorescence over baseline (relative fluorescence units) which was expressed as the percentage (max % remain) of the maximal pH 5.0-induced response.

[3] = recombinant HEK293 cells expressing hTRPV1, 50 nM capsaicin, read-out: human TRPV1 capsaicin IC50

T1 sequence (Q8NER1 whole entry): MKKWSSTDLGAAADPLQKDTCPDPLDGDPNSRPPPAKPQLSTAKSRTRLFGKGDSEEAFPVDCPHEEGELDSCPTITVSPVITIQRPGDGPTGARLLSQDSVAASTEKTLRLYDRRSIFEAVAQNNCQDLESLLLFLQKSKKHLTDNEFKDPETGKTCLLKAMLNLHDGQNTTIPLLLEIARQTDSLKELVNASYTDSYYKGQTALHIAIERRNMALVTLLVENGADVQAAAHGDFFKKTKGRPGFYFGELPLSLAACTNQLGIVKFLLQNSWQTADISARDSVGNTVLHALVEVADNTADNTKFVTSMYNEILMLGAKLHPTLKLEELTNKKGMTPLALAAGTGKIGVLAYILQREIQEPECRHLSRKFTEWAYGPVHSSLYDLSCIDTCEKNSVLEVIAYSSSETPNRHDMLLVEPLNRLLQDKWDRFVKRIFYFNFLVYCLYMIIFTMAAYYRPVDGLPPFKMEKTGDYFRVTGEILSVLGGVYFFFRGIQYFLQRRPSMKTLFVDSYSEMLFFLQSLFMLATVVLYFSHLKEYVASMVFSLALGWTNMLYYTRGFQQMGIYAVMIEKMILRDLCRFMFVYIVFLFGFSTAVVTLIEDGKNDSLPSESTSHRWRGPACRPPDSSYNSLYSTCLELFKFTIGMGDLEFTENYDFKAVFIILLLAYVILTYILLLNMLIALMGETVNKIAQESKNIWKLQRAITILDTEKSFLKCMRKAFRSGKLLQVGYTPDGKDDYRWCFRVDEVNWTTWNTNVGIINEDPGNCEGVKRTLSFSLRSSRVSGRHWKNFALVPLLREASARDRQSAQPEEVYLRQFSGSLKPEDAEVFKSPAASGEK

| Compound | IC50 (human TRPV1 [1]; [3]) [nM] | human TRPV1 H+ (max % remain) (human TRPV1 [2]) [%] | IC50 (human TRPV1 [1]) [nM] |
| --- | --- | --- | --- |
| CC1(C)C[C@@H](NC(=O)Nc2ccc(F)c3c2C[C@H](O)C3)c2cc(F)ccc2O1 [Example 146, 1-[(4R)-6-fluoro-2,2-dimethyl-3,4-dihydro-2H-chromen-4-yl]-3-[(2S)-7-fluoro-2-hydroxy-2,3-dihydro-1H-inden-4-yl]urea] | 2800 | 7 |  |
| Cc1cccnc1N1CC=C(C(=O)Nc2ccc(S(=O)(=O)C(F)(F)F)cc2)CC1 [E, reference compound] | 100 | 2 |  |
| C[C@]1(CF)C[C@@H](NC(=O)Nc2ccc3c(c2)C(O)C3)c2ccc(Cl)cc2O1 (stereo partly drawn) [Example 131, 1-[(2R,4R)-7-chloro-2-(fluoromethyl)-2-methyl-3,4-dihydro-2H-chromen-4-yl]-3-(8-hydroxybicyclo[4.2.0]octa-1,3,5-trien-3-yl)urea] | 1000 | 92 |  |
| O=C(Nc1cccc2c1CC(O)C2)NC1c2ccccc2CC1Cc1ccccc1 (stereo not shown) [Example 125, 1-(2-benzyl-2,3-dihydro-1H-inden-1-yl)-3-(2-hydroxy-2,3-dihydro-1H-inden-4-yl)urea] | 3500 | 83 |  |
| O=C(Nc1c(F)ccc2c1C[C@@H](O)C2)N[C@@H]1CC(CF)(CF)Oc2cc(C(F)(F)F)ccc21 [Example 95, 1-[(4R)-2,2-bis(fluoromethyl)-7-(trifluoromethyl)-3,4-dihydro-2H-chromen-4-yl]-3-[(2S)-5-fluoro-2-hydroxy-2,3-dihydro-1H-inden-4-yl]urea] | 170 | 46 |  |
| C[C@]1(CF)C[C@@H](NC(=O)Nc2cccc3c2C[C@H](O)C3)c2cccc(F)c2O1 [Example 66, 1-[(2R,4R)-8-fluoro-2-(fluoromethyl)-2-methyl-3,4-dihydro-2H-chromen-4-yl]-3-[(2R)-2-hydroxy-2,3-dihydro-1H-inden-4-yl]urea] | 280 | 86 |  |
| O=C(Nc1cccc2c1CC(O)C2)NC1CC(c2ccccc2)Oc2ccccc21 (stereo not shown) [Example 118, 1-(2-hydroxy-2,3-dihydro-1H-inden-4-yl)-3-(2-phenyl-3,4-dihydro-2H-chromen-4-yl)urea] | 61 | 67 |  |
| CCC1(CC)C[C@@H](NC(=O)Nc2cccc3c2C[C@H](O)C3)c2ccc(F)cc2O1 [Example 52, 1-[(4R)-2,2-diethyl-7-fluoro-3,4-dihydro-2H-chromen-4-yl]-3-[(2R)-2-hydroxy-2,3-dihydro-1H-inden-4-yl]urea] | 13 | 73 |  |
| O=C(Nc1cccc2c1C[C@@H](O)C2)N[C@@H]1CC2(CCC2)Oc2ccc(F)cc21 [Example 80, 1-[(4R)-6-fluoro-3,4-dihydrospiro[chromene-2,1′-cyclobutan]-4-yl]-3-[(2S)-2-hydroxy-2,3-dihydro-1H-inden-4-yl]urea] | 110 | 4 |  |
| O=C(Nc1ccc(F)c2c1C[C@H](O)C2)N[C@@H]1CC(CF)(CF)Oc2ccc(F)cc21 [Example 141, 1-[(4R)-6-fluoro-2,2-bis(fluoromethyl)-3,4-dihydro-2H-chromen-4-yl]-3-[(2S)-7-fluoro-2-hydroxy-2,3-dihydro-1H-inden-4-yl]urea] | 3900 | 5 |  |
| O=C(Nc1ccc(F)c2c1C[C@@H](O)C2)N[C@@H]1CC(CF)(CF)Oc2cc(Cl)ccc21 [Example 133, 1-[(4R)-7-chloro-2,2-bis(fluoromethyl)-3,4-dihydro-2H-chromen-4-yl]-3-[(2R)-7-fluoro-2-hydroxy-2,3-dihydro-1H-inden-4-yl]urea] |  | 36 | 220 |
| O=C(Nc1ccc(F)c2c1C[C@@H](O)C2)N[C@@H]1CCOc2cc(OC(F)(F)F)ccc21 [Example 168, 1-[(2R)-7-fluoro-2-hydroxy-2,3-dihydro-1H-inden-4-yl]-3-[(4R)-7-(trifluoromethoxy)-3,4-dihydro-2H-chromen-4-yl]urea] | 850 | 70 |  |
| CC1(C)C[C@@H](NC(=O)Nc2cccc3c2C[C@@H](O)C3)c2ccc(C(F)(F)F)cc2O1 [Example 77, 1-[(4R)-2,2-dimethyl-7-(trifluoromethyl)-3,4-dihydro-2H-chromen-4-yl]-3-[(2S)-2-hydroxy-2,3-dihydro-1H-inden-4-yl]urea] | 12 | 1 |  |
| CC1(C)C[C@@H](NC(=O)Nc2ccc(F)c3c2C[C@@H](O)C3)c2ccc(F)c(Cl)c2O1 [Example 166, 1-[(4R)-8-chloro-7-fluoro-2,2-dimethyl-3,4-dihydro-2H-chromen-4-yl]-3-[(2R)-7-fluoro-2-hydroxy-2,3-dihydro-1H-inden-4-yl]urea] | 65 | 43 |  |
| CC1(C)C[C@@H](NC(=O)Nc2cccc3c2C[C@@H](O)C3)c2ccccc2O1 [Example 82, 1-[(4R)-2,2-dimethyl-3,4-dihydro-2H-chromen-4-yl]-3-[(2S)-2-hydroxy-2,3-dihydro-1H-inden-4-yl]urea] | 510 | 56 |  |
| O=C(Nc1ccc(F)c2c1C[C@@H](O)C2)N[C@@H]1CC(CF)(CF)Oc2cc(OC(F)(F)F)ccc21 [Example 159, 1-[(4R)-2,2-bis(fluoromethyl)-7-(trifluoromethoxy)-3,4-dihydro-2H-chromen-4-yl]-3-[(2R)-7-fluoro-2-hydroxy-2,3-dihydro-1H-inden-4-yl]urea] | 420 | 36 |  |
| 1-[(2R)-7-fluoro-2-hydroxy-2,3-dihydro-1H-inden-4-yl]-3-[(4R)-8-(trifluoromethyl)-3,4-dihydro-2H-chromen-4-yl]urea [Example 173] | 210 | 39 |  |
| CC1(C)C[C@@H](NC(=O)Nc2cccc3c2C[C@@H](O)C3)c2cccc(C(F)(F)F)c2O1 [Example 34, 1-[(4R)-2,2-dimethyl-8-(trifluoromethyl)-3,4-dihydro-2H-chromen-4-yl]-3-[(2S)-2-hydroxy-2,3-dihydro-1H-inden-4-yl]urea] | 12 | 18 |  |
| CCC1(CC)C[C@@H](NC(=O)Nc2cccc3c2C[C@H](O)C3)c2ccc(C(F)(F)F)cc2O1 [Example 53, 1-[(4R)-2,2-diethyl-7-(trifluoromethyl)-3,4-dihydro-2H-chromen-4-yl]-3-[(2R)-2-hydroxy-2,3-dihydro-1H-inden-4-yl]urea] | 51 | 37 |  |
| Cc1nc(Nc2cccc3c2C[C@H](O)CC3)oc1-c1ccc(C(F)(F)F)cc1 [Example D, reference compound] |  | 3 |  |
| CC(C)(C)c1ccc2c(c1)CC[C@H]2NC(=O)Nc1cccc2[nH]ncc12 [C, reference compound] |  | 1 |  |
